This experiment is described as follows: Antitumor activity in MV522 cells assessed as inhibition of DNA synthesis after 2 hrs. Conditions: Homo sapiens, MV522, 2 h. The class given is functional, cell-based.

IC50 data for 2 compounds are collected here from ChEMBL document CHEMBL1138299, “Synthesis and antitumor activity of amine analogs of irofulven” (Bioorg Med Chem Lett, 2007).

Broadly, the IC50 is the concentration at which inhibition is half-maximal.

Take `CC1=C(CO)C2=C(C)C3(CC3)[C@@](C)(O)C(=O)C2=C1` [IROFULVEN]: the IC50 was 110 nM. `CC1=C(C=O)C2=C(C)C3(CC3)[C@@](C)(O)C(=O)C2=C1`: the IC50 is 4900 nM.
